Experimental data reported in US11369662B2 (The Medical College of Wisconsin, Inc., priority 2014, dated 2022).
Several values for one entry are separate records, joined by “and”; a condition that tells them apart may be missing. Equal values may be shown once. Marks after values point to notes of the source that are not given here. Non-standard residues stand in square brackets, D forms with d. Residues, ends and D or L forms follow the SMILES beside them. sY = N[C@@H](Cc1ccc(OS(=O)(=O)O)cc1)C(=O)O

Assays:
CXCL12WT [1] = target: T1, CXCL12WT (Homo sapiens, UniProt P48061); experiment: 2D NMR (1H-15N HSQC) titration of CXCR4 peptides into CXCL12WT; assay type: binding; details: for ΔG: ΔG = −RT ln Kd @ 298 K
T1 construct: made in house
Method: (§1) NMR spectroscopy. All NMR spectra were acquired on a Bruker DRX 600 MHz spectrometer equipped with a ^1H, ^15N, ^13C TXI cryoprobe at 298 K. Experiments were performed with either 50 μM [U-^15N]-CXCL12WT, -CXCL121, or -CXCL122 proteins in a solution containing 25 mM deuterated MES (pH 6.8), 10% (v/v) D2O, and 0.02% (w/v) NaN3. Full-length CXCR41-38 peptide titrations required 20 μM [U-^15N]-CXCL121 and -CXCL122 protein samples. Sulfated CXCR4 peptides were reconstituted at 100 mM in 25 mM deuterated MES, 10% (v/v) D2O, and 0.02% (w/v) NaN3 buffer. Unsulfated CXCR4 peptides were similarly reconstituted to 15 mM. Two separate 4ISIYTSD10 (SEQ ID NO:8) peptide samples were reconstituted at 10 mM and 15 mM peptide in 25 mM deuterated MES, 10% (v/v) D20, 0.02% (w/v) NaN3 buffer, from lyophilized powder.
(§2) Total peptide additions differed for individual peptide titrations but ranged from 0-160 equivalencies. Spectra were processed using in-house scripts and chemical shift tracking was performed using CARA software. Combined ^1H/^15N chemical shift perturbations were calculated as ((5 ΔδH)^2+(ΔδNH)^2)^0.5, where δH and δNH are the amide proton and nitrogen chemical shifts, respectively. Equilibrium dissociation constants (Kd) were determined by non-linear fitting of the combined ^1H/^15NH chemical shift perturbations as a function of peptide concentration to a single-site quadratic equation. For a given interaction, residues with the largest chemical shift perturbations were fitted individually. The resulting Kd values and their respective fitting errors were then averaged to produce the reported affinity and standard deviation for that interaction.

CXCL121 = target: T2, CXCL121 (Homo sapiens, UniProt P48061, I79C/L76C); experiment: 2D NMR (1H-15N HSQC) titration of CXCR4 peptides into CXCL121; assay type: binding; details: for ΔG: ΔG = −RT ln Kd @ 298 K
T2 construct: made in house
Method: as §1, §2

CXCL122 = target: T3, CXCL122 (Homo sapiens, UniProt P48061, A86C/L57C); experiment: 2D NMR (1H-15N HSQC) titration of CXCR4 peptides into CXCL122; assay type: binding; details: for ΔG: ΔG = −RT ln Kd @ 298 K
T3 construct: made in house
Method: as §1, §2

CXCL12WT dimerization = target: T4, CXCL12WT dimerization (Homo sapiens, UniProt P48061); experiment: Intrinsic tryptophan fluorescence polarization assay of CXCL12WT dimerization; assay type: binding; details: for coupling energy linking CXCL12 dimerization to sTyr21 pocket binding: thermodynamic cycle
T4 construct: made in house
Method: Fluorescence polarization assay. Fluorescence polarization (FP) assays were performed on a PTI spectrofluorometer equipped with automated polarizers, using a time base polarization method provided by the program Felix32. […] Experiments were performed in duplicate and the reported dimerization Kd values reflect the average of both experiments.

CXCL12WT [2] = target: T1, CXCL12WT; details: ΔG = −RT ln Kd @ 298 K; calculated from Veldkamp et al. (32); cited from earlier work
THP-1 cells = experiment: THP-1 chemotaxis (Transwell); assay type: cell-based; details: 3 h stimulation
Method: THP-1 chemotaxis. Chemotaxis experiments were performed using Tranwell ([…]; Costar) in 24-well format. […] THP-1 cells were washed twice and […] cells were added to the upper chamber. Plates were incubated for 3 h at 37° C., 5% CO2. Following incubation, Transwell membranes were removed and cells that migrated into the lower chamber were counted using a TC-10 Automated Cell Counter (BioRad) and hemocytometer. The chemotactic index was calculated as the difference in migrated cell number between those exposed to chemokine and the vehicle control.

NALM6 cells = experiment: NALM6 chemotaxis (Boyden chamber); assay type: cell-based; details: 90 min stimulation; relative to CXCL12WT
Method: NALM6 chemotaxis. NALM6 cells were grown in RPMI-1640 supplemented with 10% FBS, 100 U/mL penicillin-streptomycin, 2 mM glutamine, 50 μM […], non-essential amino acids, 1 mM Na-pyruvate and 25 mM HEPES buffer (pH 7.3). Chemotaxis assays were performed in triplicate in 48-well Boyden chambers (NeuroProbe), using 5 μm pore-sized polyvinylpyrrolidone-free polycarbonate membranes. […] Cells ([…] per well) resuspended in chemotaxis medium were added to the upper well and incubated for 90 min at 37° C. in 5% CO2 atmosphere. Cells were removed from the upper part of the membrane with a rubber policeman. Cells attached to the lower side of the membrane were fixed and stained as described. Migrated cells were counted in five randomly selected fields of 1000-fold magnification.
NALM6 chemotaxis. NALM6 cells were grown in RPMI-1640 supplemented with 10% FBS, 100 U/mL penicillin-streptomycin, 2 mM glutamine, 50 μM 2-mercaptoethanol, non-essential amino acids, 1 mM Na-pyruvate and 25 mM HEPES buffer (pH 7.3). Chemotaxis assays were performed in triplicate in 48-well Boyden chambers (NeuroProbe), using 5 μm pore-sized polyvinylpyrrolidone-free polycarbonate membranes. […] Migrated cells were counted in five randomly selected fields of 1000-fold magnification.

MiaPaCa2 cells = experiment: MiaPaCa2 chemotaxis (Transwell); assay type: cell-based; details: 6 h stimulation; relative to CXCL12WT
Method: MiaPaCa2 chemotaxis. Chemotactic migration of pancreatic cancer MiaPaCa2 cells was performed as previously described using Transwell plates coated with 15 ug/ml collagen. Briefly, MiaPaCa2 cells were serum starved for 2 hours, lifted using enzyme-free dissociation buffer, washed and then counted using a hemocytometer. 100,000 cells in 10 uL of serum free media were plated into the top chamber of each Transwell. The bottom chamber of each Transwell contained each stimulant in 500 uL serum free media. MiaPaCa2 cells were allowed to migrate for 6 hours, after which the cells remaining on the top of the chamber were swabbed out. Plates were then fixed in 4% paraformaldehyde and stained with DAPI. Migrated cells were visualized and counted by fluorescence microscopy, with 5 representative high-powered fields taken per well.

U-937 cells = experiment: Agarose microdroplet assay of U-937 migration; assay type: cell-based
Method: Agarose microdroplet assay. The agarose microdroplet assay was performed to determine U-937 cellular migration, as previously described. 0.5×10^6 cells/ml U-937 target cells were harvested and washed in HBSS. Cells were spun at 2,000 rpm and were transferred to a graduated 15 ml glass conical tube. The cell concentration was adjusted in agarose medium, prepared from 2% low melting temperature Seaplaque agarose and medium containing 15% FBS, using a 1:4 volume-to-volume dilution. A 1 μl agarose droplet containing 1-10^5 target cells was placed in the center of each well of a 96-well flat-bottom tissue culture plate, in triplicate, using a gastight 0.05 ml Hamilton syringe (Hamilton Company, Reno, Nev.). Droplets were allowed to harden at 4° C. for 20 min. 200 μl chilled test media was applied to each well. […] The plate was incubated for 18-24 h at 37° C. and 5% CO2. Following incubation, the radius of each droplet was determined and target cell migration was measured at four directional points 900 from one another, using an inverted light microscope equipped with a gridded eyepiece, at 40× total magnification. Percent inhibition of each sample was quantified. The plate was incubated for an additional 24 h to measure recovery, and viability was determined by trypan blue exclusion.
Agarose microdroplet assay. The agarose microdroplet assay was performed to determine U-937 cellular migration, as previously described {AdeCXCL121an, 1980 #1609}. 0.5×10^6 cells/ml U-937 target cells were harvested and washed in HBSS. Cells were spun at 2,000 rpm and were transferred to a graduated 15 ml glass conical tube. […] Following incubation, the radius of each droplet was determined and target cell migration was measured at four directional points 900 from one another, using an inverted light microscope equipped with a gridded eyepiece, at 40× total magnification. Percent inhibition of each sample was quantified. The plate was incubated for an additional 24 h to measure recovery, and viability was determined by trypan blue exclusion.

KG1a cells = experiment: Apoptosis assays in KG1a cells expressing CXCR4-YFP; assay type: cell-based, human; details: 100 ng/ml
Method: Apoptosis assays. KG1a (human acute myelogenous leukemia) cells were assayed for CXCL12-dependent apoptosis as previously described. Briefly, CXCR4 expression on KG1a cells was achieved via transient transfection with a plasmid encoding a CXCR4-YFP fluorescent fusion protein. […] Apoptosis was assayed by staining cells with APC-conjugated annexin V to detect cell-surface phosphatidyl serine (BD Biosciences) or Alexaflour-647-conjugated antibody to detect cleaved PARP (BD Biosciences), and the percentage of YFP+ cells undergoing apoptosis was determined by flow cytometry.

[3] = unsulfated vs sulfated Tyr7 peptide

For Ac-SGDYDSM-NH2 [18SGDYDSM24], the “ΔG” value (CXCL12WT [1]) was -3.50 kcal/mol, the “ΔG” value (CXCL121) was -3.85 kcal/mol and the “ΔG” value (CXCL122) was -4.2 kcal/mol and -4.20 kcal/mol.
With Ac-ISIYTSD-NH2 [4ISIYTSD10] the “affinity for CXCL12WT relative to the sTyr7 sulfopeptide” value (CXCL12WT [1]; [3]) was “two-fold higher affinity”, the “ΔG” value (CXCL12WT [1]) was -3.71 kcal/mol and the “binding to CXCL121 relative to the sTyr7 sulfopeptide” value (CXCL121; [3]) was “roughly five-fold stronger”. The “ΔG” value (CXCL121) was -4.03 kcal/mol and the “ΔG” value (CXCL122) was -4.60 kcal/mol.
For `CSCC[C@H](NC(=O)[C@H](CO)NC(=O)[C@H](CC(=O)O)NC(=O)[C@H](Cc1ccc(OS(=O)(=O)O)cc1)NC(=O)[C@H](CC(=O)O)NC(=O)CNC(=O)[C@H](CO)NC(C)=O)C(N)=O` [18SGDsYDSM24] (Ac-SGD[sY]DSM-NH2), the “ΔG” value (CXCL12WT [1]) was -3.74 kcal/mol, the ΔGbind (CXCL121; pathway 1: binding to CXCL12 before dimerization, 298 K) was −3.8 kcal mol^− and the “ΔG” value (CXCL121) was -3.81 kcal/mol. For the same compound, the “binding to CXCL122 relative to CXCL12WT or CXCL121” value (CXCL122; fold stronger) was 20 fold, the ΔGbind (CXCL122; pathway 2: binding to dimerized CXCL12, 298 K) was −5.0 kcal mol^− and the “binding to CXCL122 relative to the unsulfated variant” value (CXCL122; sulfated vs unsulfated Tyr21 peptide) was “four-fold stronger”. The “ΔG” value (CXCL122) was -5.01 kcal/mol, the “increase of CXCL12 dimerization affinity” value (CXCL12WT dimerization; by sTyr21 sulfopeptide) was “eight-fold” and the “coupling energy linking CXCL12 dimerization to sTyr21 pocket binding” value (CXCL12WT dimerization; first value) was −1.2 kcal mol^−. The “coupling energy linking CXCL12 dimerization to sTyr21 pocket binding” value (CXCL12WT dimerization; second value) was −1.0 kcal mol^−.
For `CC[C@H](C)[C@H](NC(C)=O)C(=O)N[C@@H](CO)C(=O)N[C@H](C(=O)N[C@@H](Cc1ccc(OS(=O)(=O)O)cc1)C(=O)N[C@H](C(=O)N[C@@H](CO)C(=O)N[C@@H](CC(=O)O)C(N)=O)[C@@H](C)O)[C@@H](C)CC` [4ISIsYTSD10] (Ac-ISI[sY]TSD-NH2), the “ΔG” value (CXCL12WT [1]) was -3.22 kcal/mol, the “ΔG” value (CXCL121) was -3.02 kcal/mol and the “ΔG” value (CXCL122) was -4.65 kcal/mol.
For `CC[C@H](C)[C@H](NC(=O)CNC(=O)[C@H](CCC(=O)O)NC(=O)[C@H](CCSC)NC(=O)[C@H](CCSC)NC(=O)CN)C(=O)N[C@@H](CO)C(=O)N[C@H](C(=O)N[C@@H](Cc1ccc(O)cc1)C(=O)N[C@H](C(=O)N[C@@H](CO)C(=O)N[C@@H](CC(=O)O)C(=O)N[C@@H](CC(N)=O)C(=O)N[C@@H](Cc1ccc(O)cc1)C(=O)N[C@H](C(=O)N[C@@H](CCC(=O)O)C(=O)N[C@@H](CCC(=O)O)C(=O)N[C@@H](CCSC)C(=O)NCC(=O)N[C@@H](CO)C(=O)NCC(=O)N[C@@H](CC(=O)O)C(=O)N[C@@H](Cc1ccc(O)cc1)C(=O)N[C@@H](CC(=O)O)C(=O)N[C@@H](CO)C(=O)N[C@@H](CCSC)C(=O)N[C@@H](CCCCN)C(=O)N[C@@H](CCC(=O)O)C(=O)N1CCC[C@H]1C(=O)N[C@@H](C)C(=O)N[C@@H](Cc1ccccc1)C(=O)N[C@@H](CCCNC(=N)N)C(=O)N[C@@H](CCC(=O)O)C(=O)N[C@@H](CCC(=O)O)C(=O)N[C@@H](CC(N)=O)C(=O)N[C@@H](C)C(=O)N[C@@H](CC(N)=O)C(=O)N[C@@H](Cc1ccccc1)C(=O)N[C@@H](CC(N)=O)C(=O)N[C@@H](CCCCN)C(=O)O)[C@@H](C)O)[C@@H](C)O)[C@@H](C)CC` [CXCR41-38], the “ΔG” value (CXCL121) is given as -7.43 kcal/mol, the “ΔG” value (CXCL122) is given as -8.24 kcal/mol and the “ΔG (kcal mol^−1)” value (CXCL12WT [2]) is given as −7.29* kcal mol^−1.
For Ac-SDNYTEE-NH2 [9SDNYTEE15], the “ΔG” value (CXCL12WT [1]) was -3.65 kcal/mol, the “ΔG” value (CXCL121) was -3.50 kcal/mol and the “ΔG” value (CXCL122) was -4.74 kcal/mol.
In the case of `CC(=O)N[C@@H](CO)C(=O)N[C@@H](CC(=O)O)C(=O)N[C@@H](CC(N)=O)C(=O)N[C@@H](Cc1ccc(OS(=O)(=O)O)cc1)C(=O)N[C@H](C(=O)N[C@@H](CCC(=O)O)C(=O)N[C@@H](CCC(=O)O)C(N)=O)[C@@H](C)O` [9SDNsYTEE15] (Ac-SDN[sY]TEE-NH2), the “ΔG” value (CXCL12WT [1]) is reported as -4.09 kcal/mol, the “ΔG” value (CXCL121) is reported as -3.74 kcal/mol and the “ΔG” value (CXCL122) is reported as -4.87 kcal/mol.
With “CXCL121: constitutively monomeric CXCL12 variant with L55C and I58C substitutions (SEQ ID NO:2)” the “extension of the effective chemotactic dose” value (“extension” for short) (THP-1 cells) was “at least 10 fold”, the “extension” value (NALM6 cells) was “at least 10 fold” and the “extension” value (MiaPaCa2 cells) was “at least 10 fold”. For the same compound, the “effect on U-937 cell migration” value (U-937 cells; all tested concentrations, 18-24 h, serum-containing media) was “significantly enhanced migration”, the “concentration of peak migration enhancement” value (U-937 cells; bell-shaped dose response) was 25 nM and the “cleavage of PARP” value (KG1a cells) was “significantly greater than CXCL122”.
